These results are taken from ChEMBL document CHEMBL3244159, “Ultraviolet photoelectron spectroscopy of cyclic amidines. 1. Electronic structure of some alpha-adrenergic benzylimidazolines” (J Med Chem, 1979).

One test is filed under the species Oryctolagus cuniculus. As to the kind of experiment: Binding affinity to alpha-adrenergic receptor in rabbit jejunum. The format is tissue-based.
Test [1] has as its target Adrenergic receptor alpha. As to the kind of experiment: Displacement of [3H]clonidine from alpha-adrenergic receptor in rat brain. Type of test: tissue-based.

The structures appear in SMILES notation.

For `Cc1cc(C(C)(C)C)cc(C)c1CC1=NCCN1`, the pD2 in the test filed under Oryctolagus cuniculus was 7.1.

`c1ccc2c(c1)CCCC2C1=NCCN1` (stereo not given) [TETRAHYDROZOLINE] gave a Ki in test [1] of 11 nM. Besides, in the test listed under Oryctolagus cuniculus, the pD2 worked out at 6.5.

Regarding `Cc1cc(C(C)(C)C)c(O)c(C)c1CC1=NCCN1`, in the test filed under Oryctolagus cuniculus, the pD2 was determined as 9.8. `c1ccc2c(CC3=NCCN3)cccc2c1` showed a pD2 in the test listed under Oryctolagus cuniculus of 7.1.

What is called Ki is a dissociation constant, usually derived from enzyme kinetics or from competition with a known ligand.
